Data published in patent US9936701B2, “Herbicidal compounds” (Syngenta Participations AG, priority 2013, dated 2018).
One block for each compound: values may come before it.

Experiments:
[1] = system: a variety of test species; experiment: Pre-emergence herbicidal activity (glasshouse, sprayed one day after sowing, evaluated after 13 days); type: in vivo; design: key: 5=total damage to plant; 0=no damage to plant; settings: application pre-emergence, rate 1000 g/Ha, scale 0-5
Procedure, shortened: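 Damage rated 13 days post-treatment on a 0-5 scale, 5 meaning total plant damage. Pots were sprayed pre-emergence, one day after sowing, with an acetone/water-derived aqueous spray containing 0.5% Tween 20. Plants grew under 14 h light, 65% humidity, 24/16 °C, watered twice daily.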

[2] = system: a variety of test species; experiment: Post-emergence herbicidal activity (glasshouse, sprayed after 8 days cultivation, evaluated after 13 days); type: in vivo; design: key: 5=total damage to plant; 0=no damage to plant; settings: rate 1000 g/Ha, scale 0-5
Procedure, shortened: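 Pot-grown seedlings sprayed 8 days after sowing with active ingredient in acetone/water (50:50) plus 0.5% Tween 20. Glasshouse at 24/16 °C day/night, 14 h light, 65% humidity, watered twice daily. Damage scored after 13 days on a 0–5 scale (5 = total damage, 0 = none).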

Compound: CCC(C)(C)c1onc(N2C(=O)C(Cl)=C(C)C2O)c1C#N (stereo not shown) [A40]
Pre-emergence herbicidal damage score, ABUTH [1]: 4
Pre-emergence herbicidal damage score, ALOMY [1]: 3
Pre-emergence herbicidal damage score, AMARE [1]: 5
Pre-emergence herbicidal damage score, ECHCG [1]: 5
Pre-emergence herbicidal damage score, SETFA [1]: 5
Pre-emergence herbicidal damage score, ZEAMX [1]: 2
melting point: 166 to 168 °C
ABUTH (Abutilon theophrasti) damage score, application post-emergence [2]: 5
ALOMY (Alopecurus myosuroides) damage score, application post-emergence [2]: 4
AMARE (Amaranthus retroflexus) damage score, application post-emergence [2]: 5
ECHCG (Echinochloa crus-galli) damage score, application post-emergence [2]: 5
SETFA (Setaria faberi) damage score, application post-emergence [2]: 5
ZEAMX (Zea mays) damage score, application post-emergence [2]: 3

Compound: CC1=C(Cl)C(=O)N(c2noc(C(C)C)c2C#N)C1O (stereo not shown) [A44, 3-(4-chloro-2-hydroxy-3-methyl-5-oxo-2H-pyrrol-1-yl)-5-isopropyl-isoxazole-4-carbonitrile]
Pre-emergence herbicidal damage score, ABUTH [1]: 5
Pre-emergence herbicidal damage score, ALOMY [1]: 4
Pre-emergence herbicidal damage score, AMARE [1]: 5
Pre-emergence herbicidal damage score, ECHCG [1]: 4
Pre-emergence herbicidal damage score, SETFA [1]: 5
Pre-emergence herbicidal damage score, ZEAMX [1]: 3
melting point: 117 to 119 °C
ABUTH (Abutilon theophrasti) damage score, application post-emergence [2]: 5
ALOMY (Alopecurus myosuroides) damage score, application post-emergence [2]: 5
AMARE (Amaranthus retroflexus) damage score, application post-emergence [2]: 5
ECHCG (Echinochloa crus-galli) damage score, application post-emergence [2]: 5
SETFA (Setaria faberi) damage score, application post-emergence [2]: 5
ZEAMX (Zea mays) damage score, application post-emergence [2]: 4

Compound: CCC(C)(CC)c1onc(N2C(=O)C(Cl)=C(C)C2O)c1C#N (stereo not shown) [A45]
Pre-emergence herbicidal damage score, ABUTH [1]: 4
Pre-emergence herbicidal damage score, ALOMY [1]: 3
Pre-emergence herbicidal damage score, AMARE [1]: 5
Pre-emergence herbicidal damage score, ECHCG [1]: 3
Pre-emergence herbicidal damage score, SETFA [1]: 4
Pre-emergence herbicidal damage score, ZEAMX [1]: 2
melting point: 129 to 130 °C
ABUTH (Abutilon theophrasti) damage score, application post-emergence [2]: 5
ALOMY (Alopecurus myosuroides) damage score, application post-emergence [2]: 5
AMARE (Amaranthus retroflexus) damage score, application post-emergence [2]: 5
ECHCG (Echinochloa crus-galli) damage score, application post-emergence [2]: 5
SETFA (Setaria faberi) damage score, application post-emergence [2]: 5
ZEAMX (Zea mays) damage score, application post-emergence [2]: 3

Compound: CCCC(C)(C)c1onc(N2C(=O)C(Cl)=C(C)C2O)c1C#N (stereo not shown) [A46]
Pre-emergence herbicidal damage score, ABUTH [1]: 2
Pre-emergence herbicidal damage score, ALOMY [1]: 4
Pre-emergence herbicidal damage score, AMARE [1]: 5
Pre-emergence herbicidal damage score, ECHCG [1]: 4
Pre-emergence herbicidal damage score, SETFA [1]: 4
Pre-emergence herbicidal damage score, ZEAMX [1]: 3
melting point: 113 to 115 °C
ABUTH (Abutilon theophrasti) damage score, application post-emergence [2]: 5
ALOMY (Alopecurus myosuroides) damage score, application post-emergence [2]: 5
AMARE (Amaranthus retroflexus) damage score, application post-emergence [2]: 5
ECHCG (Echinochloa crus-galli) damage score, application post-emergence [2]: 5
SETFA (Setaria faberi) damage score, application post-emergence [2]: 5
ZEAMX (Zea mays) damage score, application post-emergence [2]: 3

Compound: CCCCC(C)(C)c1onc(N2C(=O)C(Cl)=C(C)C2O)c1C#N (stereo not shown) [A47]
Pre-emergence herbicidal damage score, ABUTH [1]: 0
Pre-emergence herbicidal damage score, ALOMY [1]: 2
Pre-emergence herbicidal damage score, AMARE [1]: 5
Pre-emergence herbicidal damage score, ECHCG [1]: 2
Pre-emergence herbicidal damage score, SETFA [1]: 1
Pre-emergence herbicidal damage score, ZEAMX [1]: 2
melting point: 99 to 101 °C
ABUTH (Abutilon theophrasti) damage score, application post-emergence [2]: 5
ALOMY (Alopecurus myosuroides) damage score, application post-emergence [2]: 5
AMARE (Amaranthus retroflexus) damage score, application post-emergence [2]: 5
ECHCG (Echinochloa crus-galli) damage score, application post-emergence [2]: 5
SETFA (Setaria faberi) damage score, application post-emergence [2]: 5
ZEAMX (Zea mays) damage score, application post-emergence [2]: 2

Compound: CCC(C)c1onc(N2C(=O)C(Cl)=C(C)C2O)c1C#N (stereo not shown) [A49]
Pre-emergence herbicidal damage score, ABUTH [1]: 5
Pre-emergence herbicidal damage score, ALOMY [1]: 3
Pre-emergence herbicidal damage score, AMARE [1]: 5
Pre-emergence herbicidal damage score, ECHCG [1]: 4
Pre-emergence herbicidal damage score, SETFA [1]: 5
Pre-emergence herbicidal damage score, ZEAMX [1]: 1
melting point: 107 to 109 °C
ABUTH (Abutilon theophrasti) damage score, application post-emergence [2]: 5
ALOMY (Alopecurus myosuroides) damage score, application post-emergence [2]: 4
AMARE (Amaranthus retroflexus) damage score, application post-emergence [2]: 5
ECHCG (Echinochloa crus-galli) damage score, application post-emergence [2]: 5
SETFA (Setaria faberi) damage score, application post-emergence [2]: 5
ZEAMX (Zea mays) damage score, application post-emergence [2]: 2

Compound: CC1=C(Br)C(=O)N(c2noc(C(C)(C)C)c2C#N)C1O (stereo not shown) [A50]
Pre-emergence herbicidal damage score, ABUTH [1]: 5
Pre-emergence herbicidal damage score, ALOMY [1]: 3
Pre-emergence herbicidal damage score, AMARE [1]: 5
Pre-emergence herbicidal damage score, ECHCG [1]: 4
Pre-emergence herbicidal damage score, SETFA [1]: 5
Pre-emergence herbicidal damage score, ZEAMX [1]: 3
melting point: 182 to 184 °C
ABUTH (Abutilon theophrasti) damage score, application post-emergence [2]: 5
ALOMY (Alopecurus myosuroides) damage score, application post-emergence [2]: 4
AMARE (Amaranthus retroflexus) damage score, application post-emergence [2]: 5
ECHCG (Echinochloa crus-galli) damage score, application post-emergence [2]: 5
SETFA (Setaria faberi) damage score, application post-emergence [2]: 5
ZEAMX (Zea mays) damage score, application post-emergence [2]: 3

Compound: CCCC1=C(Br)C(=O)N(c2noc(C(C)(C)C)c2C#N)C1O (stereo not shown) [A51]
Pre-emergence herbicidal damage score, ABUTH [1]: 4
Pre-emergence herbicidal damage score, ALOMY [1]: 3
Pre-emergence herbicidal damage score, AMARE [1]: 5
Pre-emergence herbicidal damage score, ECHCG [1]: 4
Pre-emergence herbicidal damage score, SETFA [1]: 4
Pre-emergence herbicidal damage score, ZEAMX [1]: 3
melting point: 123 to 124 °C
ABUTH (Abutilon theophrasti) damage score, application post-emergence [2]: 5
ALOMY (Alopecurus myosuroides) damage score, application post-emergence [2]: 4
AMARE (Amaranthus retroflexus) damage score, application post-emergence [2]: 5
ECHCG (Echinochloa crus-galli) damage score, application post-emergence [2]: 5
SETFA (Setaria faberi) damage score, application post-emergence [2]: 5
ZEAMX (Zea mays) damage score, application post-emergence [2]: 3

Continued, in another order:

melting point: 75 to 77 °C
Compound: CCCCC(C)(C)c1cc(N2C(=O)C(Cl)=C(C)C2O)no1 (stereo not shown) [A38]
Pre-emergence herbicidal damage score, ABUTH [1]: 1
Pre-emergence herbicidal damage score, ALOMY [1]: 3
Pre-emergence herbicidal damage score, AMARE [1]: 5
Pre-emergence herbicidal damage score, ECHCG [1]: 5
Pre-emergence herbicidal damage score, SETFA [1]: 2
Pre-emergence herbicidal damage score, ZEAMX [1]: 1
ABUTH (Abutilon theophrasti) damage score, application post-emergence [2]: 5
ALOMY (Alopecurus myosuroides) damage score, application post-emergence [2]: 5
AMARE (Amaranthus retroflexus) damage score, application post-emergence [2]: 5
ECHCG (Echinochloa crus-galli) damage score, application post-emergence [2]: 5
SETFA (Setaria faberi) damage score, application post-emergence [2]: 5
ZEAMX (Zea mays) damage score, application post-emergence [2]: 2

melting point: 130 to 132 °C
Compound: CC1=C(Cl)C(=O)N(c2cc(C(C)(C)CO)on2)C1O (stereo not shown) [A39]
Pre-emergence herbicidal damage score, ABUTH [1]: 1
Pre-emergence herbicidal damage score, ALOMY [1]: 1
Pre-emergence herbicidal damage score, AMARE [1]: 4
Pre-emergence herbicidal damage score, ECHCG [1]: 3
Pre-emergence herbicidal damage score, SETFA [1]: 0
Pre-emergence herbicidal damage score, ZEAMX [1]: 1
ABUTH (Abutilon theophrasti) damage score, application post-emergence [2]: 4
ALOMY (Alopecurus myosuroides) damage score, application post-emergence [2]: 3
AMARE (Amaranthus retroflexus) damage score, application post-emergence [2]: 5
ECHCG (Echinochloa crus-galli) damage score, application post-emergence [2]: 5
SETFA (Setaria faberi) damage score, application post-emergence [2]: 1
ZEAMX (Zea mays) damage score, application post-emergence [2]: 1

melting point: 114 to 116 °C
Compound: C=CC(C)(C)c1cc(N2C(=O)C(Cl)=C(C)C2O)no1 (stereo not shown) [A41]
Pre-emergence herbicidal damage score, ABUTH [1]: 5
Pre-emergence herbicidal damage score, ALOMY [1]: 4
Pre-emergence herbicidal damage score, AMARE [1]: 5
Pre-emergence herbicidal damage score, ECHCG [1]: 4
Pre-emergence herbicidal damage score, SETFA [1]: 5
Pre-emergence herbicidal damage score, ZEAMX [1]: 3
ABUTH (Abutilon theophrasti) damage score, application post-emergence [2]: 5
ALOMY (Alopecurus myosuroides) damage score, application post-emergence [2]: 5
AMARE (Amaranthus retroflexus) damage score, application post-emergence [2]: 5
ECHCG (Echinochloa crus-galli) damage score, application post-emergence [2]: 5
SETFA (Setaria faberi) damage score, application post-emergence [2]: 5
ZEAMX (Zea mays) damage score, application post-emergence [2]: 4

melting point: 145 to 147 °C
Compound: CC1=C(Cl)C(=O)N(c2cc(C(C)(C)C#N)on2)C1O (stereo not shown) [A42]
Pre-emergence herbicidal damage score, ABUTH [1]: 5
Pre-emergence herbicidal damage score, ALOMY [1]: 4
Pre-emergence herbicidal damage score, AMARE [1]: 5
Pre-emergence herbicidal damage score, ECHCG [1]: 4
Pre-emergence herbicidal damage score, SETFA [1]: 5
Pre-emergence herbicidal damage score, ZEAMX [1]: 2
ABUTH (Abutilon theophrasti) damage score, application post-emergence [2]: 5
ALOMY (Alopecurus myosuroides) damage score, application post-emergence [2]: 5
AMARE (Amaranthus retroflexus) damage score, application post-emergence [2]: 5
ECHCG (Echinochloa crus-galli) damage score, application post-emergence [2]: 5
SETFA (Setaria faberi) damage score, application post-emergence [2]: 5
ZEAMX (Zea mays) damage score, application post-emergence [2]: 4

melting point: 104 to 106 °C
Compound: CCC(C)(CC)c1cc(N2C(=O)C(Cl)=C(C)C2O)no1 (stereo not shown) [A43]
Pre-emergence herbicidal damage score, ABUTH [1]: 4
Pre-emergence herbicidal damage score, ALOMY [1]: 4
Pre-emergence herbicidal damage score, AMARE [1]: 5
Pre-emergence herbicidal damage score, ECHCG [1]: 4
Pre-emergence herbicidal damage score, SETFA [1]: 5
Pre-emergence herbicidal damage score, ZEAMX [1]: 2
ABUTH (Abutilon theophrasti) damage score, application post-emergence [2]: 5
ALOMY (Alopecurus myosuroides) damage score, application post-emergence [2]: 5
AMARE (Amaranthus retroflexus) damage score, application post-emergence [2]: 5
ECHCG (Echinochloa crus-galli) damage score, application post-emergence [2]: 5
SETFA (Setaria faberi) damage score, application post-emergence [2]: 5
ZEAMX (Zea mays) damage score, application post-emergence [2]: 2
